According to patent US11419865B2, “Method for inducing a sustained immune response” (Cytocom Inc., priority 2016, dated 2022):

Columns and labels:
children with autism = assay: autism case reports
[1] = system: A549 (lung) and HCT116 (CRC); assay: continuous 48 h exposure, lung and CRC cells
[2] = system: patients with primary progressive multiple sclerosis (PPMS); assay: six month phase II multicenter pilot trial in primary progressive multiple sclerosis, 40 patients; format: in vivo, human
Protocol: […]. The primary end points were safety and tolerability. Secondary outcomes were efficacy on spasticity, pain, fatigue, depression, and quality of life. Clinical and biochemical evaluations were serially performed. Protein concentration of beta-endorphins (BE) and mRNA levels and allelic variants of the mu-opioid receptor gene (OPRM1) were analyzed.

Hepatitis B = Hepatitis B case report; format: in vivo, human; conditions: 1 mg
HIV [3] = assay: naltrexone as adjunct therapy, 50 HIV/AIDS patients in Africa with standard of care; format: in vivo, human
From the text: Naltrexone as an adjunct therapy with HIV/AIDS patients. […] HIV disease is associated with a new constellation of problems, generally referred to as “non-AIDS morbidity”, and, in the popular press, “premature aging. […] at risk for developing a number of non-AIDS conditions, including cardiovascular disease, cancer, kidney disease, liver disease, osteopenia/osteoporosis and neurocognitive disease (collectively referred to as “serious non-AIDS events”). Malignancies associated with infections such as human papilloma virus (including uro-genital and head and neck cancers), Epstein Barr Virus (including Hodgkins disease), and hepatitis B and C (hepatocellular carcinoma), are also relatively common in HIV-infected adult. […] Subtle elevations in many of these biomarkers are associated with dramatic increases in the risk of subsequent disease, including all-cause mortality For example, as compared to a well-matched uninfected population, treated HIV-infected adults have approximately 50 to 100% higher levels of the inflammatory cytokine interleukin-6 (IL-6)^(32). […] Risk factors for impaired CD4 T-cell recovery include low pre-treatment CD4+ T cell count nadir, co-infection with other viruses such as hepatitis C, older age, and perhaps viral factors (24). […]

[4] = system: patients diagnosed with fibromyalgia; assay: open label single center study, twenty-five fibromyalgia patients; format: in vivo, human; conditions: 4.5 mg
[5] = system: multiple sclerosis (MS) patients; assay: double-masked, placebo-controlled crossover pilot trial on quality of life in multiple sclerosis, 80 patients; format: in vivo, human; conditions: 4.5 mg nightly
From the text: RESULTS: Eighty subjects with clinically definite MS were enrolled, and 60 subjects completed the trial. Ten withdrew before completing the first trial period: 8 for personal reasons, 1 for a non-MS-related adverse event, and 1 for perceived benefit. Database management errors occurred in 4 other subjects, and quality of life surveys were incomplete in 6 subjects for unknown reasons. […] LDN was associated with significant improvement on the following mental health quality of life measures: a 3.3-point improvement on the Mental Component Summary score of the Short Form-36 General Health Survey (p=0.04), a 6-point improvement on the Mental Health Inventory (p<0.01), a 1.6-point improvement on the Pain Effects Scale (p=0.04), and a 2.4-point improvement on the Perceived Deficits Questionnaire (p=0.05). […] Further studies with LDN in MS are warranted.

ovarian cancer cells = ovarian cancer cells treated with different dosing regimens of naltrexone; format: cell-based
Protocol: […]. They also prevent the adhesion of cancer cells to bone marrow stromal cells and thereby inhibit the enhanced secretion of migratory factors, such as interleukin (IL)-6, TNF-α, and vascular endothelial growth factor. In research experiments, ovarian cancer cells were treated with either water as the control or different dosing regimens of naltrexone to replicate high dose versus Immediate release dosing of naltrexone.

[6] = system: Autoimmune Hepatitis-Type 1 patient; assay: Autoimmune Hepatitis-Type 1 case report; conditions: 4.5 mg nightly
HIV [7] = assay: single blind 90 day randomized bridging clinical trial in Nigeria, asymptomatic HIV+ adults on ART; format: in vivo, human
Protocol: The differences in CD4 count, CD4%, hemoglobin, viral load, interferon alpha, and standard chemistry panel were measured between treated versus non-treated groups four times throughout the study. […] When used alone, it appears to slow and/or stop the progression of the disease.

AIDS = conditions: 3.0 mg daily at bedtime, 12 weeks, cited from earlier work
Fibromyalgia patient = assay: Fibromyalgia and Epstein Barr case report; format: in vivo, human
From the text: A person was diagnosed in 1998 Fibromyalgia and Epstein Barr, had to quit work, in pain and very depressed. Various treatments over the years for pain prescribed and other problems with the disease. […]

## O=C1CC[C@@]2(O)[C@H]3Cc4ccc(O)c5c4[C@@]2(CCN3CC2CC2)[C@H]1O5 [Immediate release naltrexone, naltrexone]
Children with autism; 3 mg
  initial effect, child, Autism: hyperactivity increased for the first three weeks
Children with autism; 5 ml at bedtime
  side effect, child, Autism: a little constipation
[1]
  effect on A549 and HCT116: no effect
[2]; 40 patients
  Neurological disability: progressed in only one patient
  dropouts and major adverse events: Five dropouts and two major adverse events occurred
[2]; end of the six month trial
  spasticity: significant reduction of spasticity
[2]; human, in vivo
  beta-endorphins (BE) concentration: increased during the trial
  safety and tolerability: safe and well tolerated
Hepatitis B
  additional benefits, child, Hepatitis B: resolutions of eczema
Hepatitis B; within 7 months
  serology, child, Hepatitis B: Sero-conversion to negative antigens and positive antibodies
Hepatitis B; within one month
  ALT/AST, child, Hepatitis B: decreased to normal
Hepatitis B; within one month, from 59.2 million
  viral load, child, Hepatitis B: 53,000
HIV [3]; adjunct to standard of care (ART)
  inflammatory cytokine and Th1/Th2 balance: Secreased inflammatory cytokine and a shift from Th1 (pro-inflammatory) to Th2 (anti-inflammatory)
HIV [3]; adjunct to standard of care, long term
  opportunistic infection and quality of life: reduction in opportunistic infection and a higher quality of live
[4]
  average improvement in FIQR in eleven patients (50%): 41%
[5]
  tolerability and serious adverse events: well tolerated, and serious adverse events did not occur
[5]; 8 weeks, p=0.04
  improvement on the Mental Component Summary score of the Short Form-36 General Health Survey: 3.3 point
CRPS patients; 3 mg once a day, then 4.5 mg per day, from (7-10)/10
  pain scores NRS (out of 10), person one, CRPS and EDS: 3-5
CRPS patients; 3 mg then 4.5 mg per day
  allodynia and sensitivity, person one, CRPS: decrease in allodynia, as well as a decrease in sensitivity to touch and temperature change
CRPS patients; 3 mg then 4.5 mg per day, before surgery
  dystonia, initial treatment, person one, CRPS: no effect on the dystonia
CRPS patients; 4.5 mg per day
  side effects, person three, CRPS: No side effects
CRPS patients; 4.5 mg per day at night, before 8 to 10
  average pain on the Numeric Rating Scale (NRS), person three, CRPS: 5 to 6
CRPS patients; 4.5 mg per day, by March of 2012, 6 week intervals
  requirements for intravenous ketamine infusions, person three, CRPS: not as frequent
CRPS patients; 4.5 mg per day, cane used continuously since 2006
  walking, person three, CRPS: able to walk without a cane
CRPS patients; 4.5 mg per day, within 2 months
  dystonic spasms, person three, CRPS: dystonic spasms discontinued
CRPS patients; 3 weeks after resuming drug
  post-operative pain NRS (out of 10), person one, CRPS: 4-6
CRPS patients; 18 months
  side effects, person one, CRPS: No side effects
CRPS patients; after ankle reinforcement surgery, on drug
  fixed dystonia at cast removal, person one, CRPS: remission of the leg's fixed dystonia
CRPS patients; maintained for 18 months
  CRPS symptoms, person one: CRPS symptoms have resolved completely
Ovarian cancer cells; Immediate release low or short-term dosing, control water
  growth of cancer cells: growth of cancer cells was slowed
Ovarian cancer cells; high dose of naltrexone
  growth of cancer cells: cancer cells were stimulated and grew faster
[6]
  side effects, person, Autoimmune Hepatitis-Type 1: vivid dreams and mild indigestion in the first two weeks
HIV [7]; about 4.5 mg single oral dose with ART, at 3 months
  increase in CD4 count: 44%
HIV [7]; about 4.5 mg with ART
  BMI: increase in BMI
  opportunistic infections: reduction in opportunistic infections
HIV [7]; about 4.5 mg with ART, at 3 months, control 54 subjects
  improvement in CD4 count vs control group: significantly greater than the control group
HIV [7]; about 4.5 mg with ART, throughout treatment
  Improvement in CD4%: the increases were statistically significant
AIDS
  lymphocyte mitogen responses: declined on placebo and not on Immediate release naltrexone
  pathologically elevated levels of acid-labile alpha interferon: declined significantly
AIDS; placebo 5 out of 16 (31%)
  incidence of opportunistic infections (patients): 0 of the 22
Fibromyalgia patient; 0.5 mg in 2004 increased to 3 mg
  decrease of pain level, person, Fibromyalgia and Epstein Barr: 90%
Fibromyalgia patient; 0.5 mg increased to 3 mg
  antidepressant use, person, Fibromyalgia: no longer need to take anti-depressants
